{
  "source": "patent US20230330191A1",
  "about": "“METHODS OF STIMULATING BONE GROWTH WITH ABALOPARATIDE AND DENOSUMAB” (Radius Health, Inc., priority 2020, published 2023)",
  "origin": "cited, not measured here",
  "key": {"[1]": {"settings": "in vivo"}, "RANKL:OPG ratio": {"system": "RANKL:OPG ratio", "settings": "Makino, CTI 2018"}, "[2]": {"settings": "in vivo", "remark": "listed apart in the source"}, "[3]": {"system": "ovariectomy-induced osteopenia animal models"}},
  "data": [
    {"molecule": "CC[C@H](C)[C@H](NC(=O)[C@H](CCC(=O)O)NC(=O)[C@H](CO)NC(=O)[C@@H](NC(=O)[C@@H](N)CO)C(C)C)C(=O)N[C@@H](CCC(N)=O)C(=O)N[C@@H](CC(C)C)C(=O)N[C@@H](CCSC)C(=O)N[C@@H](Cc1cnc[nH]1)C(=O)N[C@@H](CC(N)=O)C(=O)N[C@@H](CC(C)C)C(=O)NCC(=O)N[C@@H](CCCCN)C(=O)N[C@@H](Cc1cnc[nH]1)C(=O)N[C@@H](CC(C)C)C(=O)N[C@@H](CC(N)=O)C(=O)N[C@@H](CO)C(=O)N[C@@H](CCSC)C(=O)N[C@@H](CCC(=O)O)C(=O)N[C@@H](CCCN=C(N)N)C(=O)N[C@H](C(=O)N[C@@H](CCC(=O)O)C(=O)N[C@@H](Cc1c[nH]c2ccccc12)C(=O)N[C@@H](CC(C)C)C(=O)N[C@@H](CCCN=C(N)N)C(=O)N[C@@H](CCCCN)C(=O)N[C@@H](CCCCN)C(=O)N[C@@H](CC(C)C)C(=O)N[C@@H](CCC(N)=O)C(=O)N[C@@H](CC(=O)O)C(=O)N[C@H](C(=O)N[C@@H](Cc1cnc[nH]1)C(=O)N[C@@H](CC(N)=O)C(=O)N[C@@H](Cc1ccccc1)C(=O)O)C(C)C)C(C)C", "note": "[teriparatide]", "values": [
      {"measurement": "total hip BMD", "setting": "women; 2 years of teriparatide after 2 years of denosumab, versus mean BMD at end of denosumab treatment (Leder, Lancet 2015)", "value": "remains below the mean BMD"},
      {"measurement": "BMD in the hip and femoral neck", "setting": "women; switching from denosumab to teriparatide", "value": "substantial BMD loss"}
    ]},
    {"molecule": "Denosumab: fully human monoclonal IgG antibody with affinity and specificity for human receptor activator of nuclear factor kappa-B ligand (RANKL)", "values": [
      {"measurement": "effects of denosumab withdrawal on bone", "setting": "women; after withdrawal (Cummings JBMR 2017)", "value": "dramatic increased bone remodeling, rapid prominent bone loss, and multiple vertebral fractures"}
    ]},
    {"molecule": "[Glu22,25, Leu23,28,31, Aib29, Lys26,30]hPTHrP(1-34)NH2 [abaloparatide]", "values": [
      {"measurement": "incidence of the most common adverse reactions (hypercalciuria, dizziness, nausea, headache, palpitations, fatigue, upper abdominal pain, vertigo)", "setting": "[1]", "value": "> 2", "unit": "%"},
      {"measurement": "RANKL and OPG expression, RANKL:OPG ratio", "setting": "RANKL:OPG ratio", "value": "upregulates RANKL and reduces OPG, increasing the RANKL:OPG ratio"},
      {"measurement": "increases in BMD compared with cathepsin K inhibitor drugs or PTH-like drugs such as teriparatide", "setting": "[2]", "value": "substantially faster and greater"},
      {"measurement": "potential to induce hypercalcemia compared to teriparatide", "setting": "[2]", "value": "lower potential to induce hypercalcemia"},
      {"measurement": "bone loss (bone anabolic activity)", "setting": "[3]", "value": "complete reversal of bone loss"}
    ]}
  ]
}
